The target in one test is T1, MDM2 (Homo sapiens, UniProt Q00987).
T1 construct: made in house
Nature of the test: Inhibition test of MDM2-P53 (GST-MDM2, Biotin-P53, Anti-GST-Tb, SA-XL665). The test is classed as binding. The procedure, abridged:
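HTRF-type assay using 4 nM GST-MDM2 (final), Biotin-P53, SA-XL665 and anti-GST-Tb in PBS with 0.1% BSA, 5 mM DTT and 1 mM AEBSF. Compounds in 5-fold serial dilutions over twelve points; incubation 90 min at 25° C with shaking before plate-reader read-out.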

The subject of test [1] is human osteosarcoma cell line SJSA-1. The test is described as follows: Inhibition of proliferation of human osteosarcoma cell line SJSA-1 (DAPI staining, In Cell Analyzer). To be noted: Homo sapiens, SJSA-1, 72 h, read-out: IC50 (nM), inhibitory activity on proliferation of human osteosarcoma cell line SJSA-1, SJSA-1, incubated 72 h.

T1 sequence (Q00987 whole entry): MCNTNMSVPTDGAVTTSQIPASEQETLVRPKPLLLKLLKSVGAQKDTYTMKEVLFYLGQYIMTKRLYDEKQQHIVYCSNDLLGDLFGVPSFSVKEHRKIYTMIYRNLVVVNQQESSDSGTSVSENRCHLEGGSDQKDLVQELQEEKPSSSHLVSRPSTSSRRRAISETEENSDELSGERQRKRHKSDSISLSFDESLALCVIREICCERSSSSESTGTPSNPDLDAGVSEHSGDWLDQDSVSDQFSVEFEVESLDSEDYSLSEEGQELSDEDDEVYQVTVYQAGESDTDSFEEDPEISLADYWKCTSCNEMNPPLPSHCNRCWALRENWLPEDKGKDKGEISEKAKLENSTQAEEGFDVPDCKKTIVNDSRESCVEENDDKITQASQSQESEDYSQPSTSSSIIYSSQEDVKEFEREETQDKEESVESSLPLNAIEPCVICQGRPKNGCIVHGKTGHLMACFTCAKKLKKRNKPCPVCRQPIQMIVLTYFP

Consider `COc1ccc(-c2nc3c(n2C(C)C)[C@@]2(C(=O)Nc4cc(Cl)ccc42)N(c2cc(Cl)ccc2C)C3=O)c(OC)n1` [Example S-8, (S)-6-chloro-5′-(5-chloro-2-methylphenyl)-2′-(2,6-dimethoxypyridin-3-yl)-3′-isopropyl-3′H-spiro[dihydroindole-3,4′-pyrrolo[3,4-d]imidazole]-2,6′(5′H)-dione], for which the figures for the IC50 (at MDM2; in test [1]) were 3.29 nM and 10.3 nM, respectively.
The corresponding values for `COc1cc(C)ncc1-c1nc2c(n1C(C)C)[C@@]1(C(=O)Nc3cc(Cl)ccc31)N(c1cc(Cl)ccc1C)C2=O` [Example S-154, (S)-6-chloro-5′-(5-chloro-2-methylphenyl)-3′-isopropyl-2′-(4-methoxy-6-methylpyridin-3-yl)-3′H-spiro[dihydroindole-3,4′-pyrrolo[3,4-d]imidazole]-2,6′(5′H)-dione] are 0.9 nM and 22 nM.
The corresponding values for `COc1cc(OC2CC2)ncc1-c1nc2c(n1C(C)C)[C@@]1(C(=O)Nc3cc(Cl)ccc31)N(c1cc(Cl)ccc1C)C2=O` [Example S-110, (S)-6-chloro-5′-(5-chloro-2-methylphenyl)-2′-(6-cyclopropoxy-4-methoxypyridin-3-yl)-3′-isopropyl-3′H-spiro[dihydroindole-3,4′-pyrrolo[3,4-d]imidazole]-2,6′(5′H)-dione] are 1.6 nM and 78 nM.
In the case of `CCc1cc(-c2nc3c(n2C(C)C)C2(C(=O)Nc4cc(Cl)ccc42)N(c2cc(Cl)ccc2C)C3=O)c(OC)cc1N(C)C` (centres unmarked) [Example 125, 6-chloro-5′-(5-chloro-2-methylphenyl)-2′-(4-(dimethylamino)-5-ethyl-2-methoxyphenyl)-3′-isopropyl-3′H-spiro[dihydroindole-3,4′-pyrrolo[3,4-d]imidazole]-2,6′(5′H)-dione], the IC50 at MDM2 amounted to 20.8 nM; in test [1], 60.3 nM.
As for `COc1cc(N(C)C)ncc1-c1nc2c(n1C(C)C)[C@]1(C(=O)Nc3cc(Cl)ccc31)N(c1cc(Cl)ccc1C)C2=O` [Example R-111, (R)-6-chloro-5′-(5-chloro-2-methylphenyl)-2′-(6-(dimethylamino)-4-methoxypyridin-3-yl)-3′-isopropyl-3′H-spiro[dihydroindole-3,4′-pyrrolo[3,4-d]imidazole]-2,6′ (5′H)-dione], the IC50 against MDM2 came to 110 nM; in test [1] it was 561 nM.
With `COc1ccc(N2C(=O)c3nc(-c4ccc(N)cc4OC)n(C(C)C)c3[C@]23C(=O)Nc2cc(Cl)ccc23)cc1Cl` [Example R-71, (R)-2′-(4-amino-2-methoxyphenyl)-6-chloro-5′-(3-chloro-4-methoxyphenyl)-3′-isopropyl-3′H-spiro[dihydroindole-3,4′-pyrrolo[3,4-d]imidazole]-2,6′(5′H)-dione], the IC50 is 100 nM at MDM2 and 7020 nM in test [1].
The matching figures for `COc1ncc(-c2nc3c(n2C(C)C)[C@]2(C(=O)Nc4cc(Cl)ccc42)N(c2cc(C)ccc2C)C3=O)c(OC)n1` [Example R-56, (R)-6-chloro-2′-(2,4-dimethoxypyrimidin-5-yl)-5′-(2,5-dimethylphenyl)-3′-isopropyl-3′H-spiro[dihydroindole-3,4′-pyrrolo[3,4-d]imidazole]-2,6′(5′H)-dione]: 155 nM and 3480 nM.
With `COc1cc(C(F)(F)F)ccc1-c1nc2c(n1C(C)C)[C@]1(C(=O)Nc3cc(Cl)ccc31)N(c1cc(Cl)cnc1C)C2=O` [Example R-144, (R)-6-chloro-5′-(5-chloro-2-methylpyridin-3-yl)-3′-isopropyl-2′-(2-methoxy-4-(trifluoromethyl)phenyl)-3′H-spiro[dihydroindole-3,4′-pyrrolo[3,4-d]imidazole]-2,6′(5′H)-dione], the results for the IC50 (against MDM2; in test [1]) were 119 nM and 2450 nM, respectively.
`COc1ncncc1-c1nc2c(n1C(C)C)[C@@]1(C(=O)Nc3cc(Cl)ccc31)N(c1cc(Cl)ccc1C)C2=O` [Example S-27, (S)-6-chloro-5′-(5-chloro-2-methylphenyl)-3′-isopropyl-2′-(4-methoxypyrimidin-5-yl)-3′H-spiro[dihydroindole-3,4′-pyrrolo[3,4-d]imidazole]-2,6′(5′H)-dione]: the IC50 at MDM2 was determined as 3.45 nM; in test [1] it was 119 nM.
The corresponding values for `COc1ccc(-c2nc3c(n2C(C)C)[C@]2(C(=O)Nc4cc(Cl)ccc42)N(c2cc(Cl)ccc2C)C3=O)c(OC)c1` [Example R-9, (R)-6-chloro-5′-(5-chloro-2-methylphenyl)-2′-(2,4-dimethoxyphenyl)-3′-isopropyl-3′H-spiro[dihydroindole-3,4′-pyrrolo[3,4-d]imidazole]-2,6′(5′H)-dione] are 332 nM and 2820 nM.
Take `COc1nc(C2CC2)ncc1-c1nc2c(n1C(C)C)[C@@]1(C(=O)Nc3cc(Cl)ccc31)N(c1cccc(Cl)c1)C2=O` [Example S-122, (S)-6-chloro-5′-(3-chlorophenyl)-2′-(2-cyclopropyl-4-methoxypyrimidin-5-yl)-3′-isopropyl-3′H-spiro[dihydroindole-3,4′-pyrrolo[3,4-d]imidazole]-2,6′(5′H)-dione]: the IC50 against MDM2 was found to be 2.76 nM; in test [1], 117 nM.
As for `COc1cc(N(C)C)ccc1-c1nc2c(n1C(C)C)[C@@]1(C(=O)Nc3cc(Cl)ccc31)N(c1cccc(Cl)c1)C2=O` [Example S-104, (S)-6-chloro-5′-(3-chlorophenyl)-2′-(4-(dimethylamino)-2-methoxyphenyl)-3′-isopropyl-3′H-spiro[dihydroindole-3,4′-pyrrolo[3,4-d]imidazole]-2,6′(5′H)-dione], the figures for the IC50 (at MDM2; in test [1]) were 2.26 nM and 266 nM, respectively.
Consider `COc1nc(C(C)C)ncc1-c1nc2c(n1C(C)C)[C@@]1(C(=O)Nc3cc(Cl)ccc31)N(c1cc(Cl)ccc1C)C2=O` [Example S-172, (S)-6-chloro-5′-(5-chloro-2-methylphenyl)-3′-isopropyl-2′-(2-isopropyl-4-methoxypyrimidin-5-yl)-3′H-spiro[dihydroindole-3,4′-pyrrolo[3,4-d]imidazole]-2,6′(5′H)-dione], for which the IC50 worked out at 4.15 nM against MDM2 and 53.3 nM in test [1].
The corresponding values for `COc1cc(N)ccc1-c1nc2c(n1C(C)C)[C@@]1(C(=O)Nc3cc(Cl)ccc31)N(c1cc(Cl)ccc1C)C2=O` [Example S-49, (S)-2′-(4-amino-2-methoxyphenyl)-6-chloro-5′-(5-chloro-2-methylphenyl)-3′-isopropyl-3′H-spiro[dihydroindole-3,4′-pyrrolo[3,4-d]imidazole]-2,6′(5′H)-dione] are 1.72 nM and 5.92 nM.
On to `CCOc1cc(OC)c(-c2nc3c(n2C(C)C)[C@@]2(C(=O)Nc4cc(Cl)ccc42)N(c2cc(F)cc(Cl)c2)C3=O)cn1` [Example S-139, (S)-6-chloro-5′-(3-chloro-5-fluorophenyl)-2′-(6-ethoxy-4-methoxypyridin-3-yl)-3′-isopropyl-3′H-spiro[dihydroindole-3,4′-pyrrolo[3,4-d]imidazole]-2,6′(5′H)-dione], for which the IC50 against MDM2 turned out to be 1.36 nM; in test [1], 50.7 nM.
Turning to `COc1c(F)cccc1-c1nc2c(n1C(C)C)[C@@]1(C(=O)Nc3cc(Cl)ccc31)N(c1cc(Cl)ccc1C)C2=O` [Example S-76, (S)-6-chloro-5′-(5-chloro-2-methylphenyl)-2′-(3-fluoro-2-methoxyphenyl)-3′-isopropyl-3′H-spiro[dihydroindole-3,4′-pyrrolo[3,4-d]imidazole]-2,6′(5′H)-dione], the IC50 against MDM2 worked out at 4.23 nM; in test [1] it was 309 nM.
